Measurements taken from patent US20230127304A1, “NEW INHIBITORS FOR THE KEAP1-NRF2 PROTEIN-PROTEIN INTERACTION” (PRESIDENT AND FELLOWS OF HARVARD COLLEGE, priority 2020, published 2023).
“Also recorded” adds a separate entry of the source. Where two headings read alike, the source gives them in different places.

Assays:
[1] = Dynamic light scattering (DLS) aggregation; format: physicochemical; conditions: 20 μM compound, triplicates average
Protocol: To test the potential aggregation of hits we used DLS experiments. The experiments were performed on a ZS90 Zetasizer instrument (Malvern Panalytical, UK). Measurements were done in triplicate with 10 scans per run (100 s). […] The 20 μM working solution was made from a 1 mM stock of the compound in DMSO. The data was analysed by the built-in software. Compounds were classified as aggregated when the radius of the measured particles was above the minimum colloidal aggregate size (for small molecules) of 50 nm^39.

NMR solubility assay = format: physicochemical; conditions: 5 μM to 30 μM, PBS buffer, pH 7.4
NQO1 = NQO1 assay; format: cell-based; conditions: Hepa1c1c7 cells, 48 h; for specific activity of NQO1: 0 uM = 1
Protocol: In this study, the inventors used a […] assay to quantitate the NQO1 levels. […] Specifically, Hepa1c1c7 cells were exposed in 8 replicates to a vehicle ([…]) or 8 serial dilutions of each compound for 48 h. Cells were then lysed and the specific activity of NQO1 was determined using menadione as a substrate.

NRF2-KEAP1 interaction [2] = target: T1, NRF2-KEAP1 interaction (Mus musculus, UniProt Q9Z2X8); assay: Fluorescence polarization (FP) Level-2 NRF2 peptide displacement; format: binding; conditions: for FP Assay: ability to displace the NRF2-peptide
T1 construct: mouse KEAP1 Kelch domain (residues 322-624); made in house; host or cells: E. coli BL21(DE3); peptide purchased from GenScript USA Inc
Protocol: The measurements were carried out in triplicate, and the three data points for each concentration averaged. IC50 values were determined by fitting the averaged data points to a four parameter logistic curve using the non-linear least squares method provided by the SciPy library for Python^33. The standard error (see Table 5) on the IC50 was computed by taking the square root of the diagonal of the parameter covariant matrix.

NRF2-KEAP1 interaction [3] = target: T1, NRF2-KEAP1 interaction; assay: BLI displacement assay; format: binding; conditions: ability to displace the NRF2-peptide
Protocol: Bio-layer interferometry binding and displacement assays: NRF2-KEAP1 binding BLI experiments were performed on an Octet RED384 (ForteBio, Menlo Park, Calif., USA) using streptavidin-coated Dip and Read Biosensors (ForteBio) and 384 well plates with 120 μL volume. […] To test for nonspecific binding of GST-KEAP1 protein, reference tips were incubated in buffer alone. […] After measuring association, tips were moved to wells containing buffer, and dissociation was measured for 5 minutes. The data were processed and analysed using the Octet data analysis software version 11.0 (ForteBio, Inc., Menlo Park, Calif., USA). The association-dissociation curve for each concentration was fitted using a 1:1 model given by the equations
Compound screening by BLI displacement assay: The BLI displacement assays were setup as described above. […] The compounds were used at concentrations of […], and pre-incubated with GST-KEAP1 protein. The association phase was measured in the well containing compound with GST-KEAP1 protein for 10 minutes, and followed by a dissociation phase in buffer for 5 minutes. The inhibition percentage was the average BLI signal in the last 50 seconds of the dissociation phase, normalized against the condition of GST-KEAP1 protein in the absence of compound.

KEAP1 = target: T2, KEAP1 (Mus musculus, UniProt Q9Z2X8); assay: Ligand-detected NMR (DLB, STD, CPMG); format: binding; conditions: 50 μM compound, 5 μM KEAP1 (2.5 μM for iKeap1 and iKeap2)
T2 construct: The cleaved mouse KEAP1 Kelch domain (residues 322-624) consists of 308 amino acids; GST (N, cleaved yes); made in house; host or cells: E. coli BL21(DE3)
Protocol: Data were analysed and visualized in Matlab (MathWorks, MA).

GST-KEAP1 = target: T3, GST-KEAP1 (Mus musculus, UniProt Q9Z2X8); assay: SPR Level-3 steady-state binding
T3 construct: mouse KEAP1 Kelch domain (residues 322-624); made in house; host or cells: E. coli BL21(DE3)
Description: Req=(Rmax*C)/(Kd+C)+b, (1)
The biphasic binding model is given by the equation
Req=(Rmax,1*C)/(Kd,1+C)+Rmax,2*C/(Kd,2+C)+b, (2)

[4] = SPR Level-3, independent experiment 2, compounds marked * fitted with biphasic binding model, read-out: Kd, 2

T1 sequence (Q9Z2X8 322-624): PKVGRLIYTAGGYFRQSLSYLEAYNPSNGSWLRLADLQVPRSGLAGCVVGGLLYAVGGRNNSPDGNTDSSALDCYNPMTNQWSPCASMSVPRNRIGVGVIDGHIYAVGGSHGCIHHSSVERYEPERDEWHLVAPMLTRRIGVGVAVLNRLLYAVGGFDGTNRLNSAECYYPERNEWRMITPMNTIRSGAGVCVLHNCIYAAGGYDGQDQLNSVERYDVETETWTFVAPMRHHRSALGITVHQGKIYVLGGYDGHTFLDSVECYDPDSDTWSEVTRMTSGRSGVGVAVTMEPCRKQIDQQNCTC
T3 sequence (Q9Z2X8 322-624): as above
T2 sequence (Q9Z2X8 322-624): as above

Cc1ccc(S(=O)(=O)Oc2nc3nc4ccccc4nc3nc2OS(=O)(=O)c2ccc(C)cc2)cc1 [iKeap1]
Radius [1]: 2.306 nm
aggregation in NMR solubility assay (NMR solubility assay): does not aggregate
CD (NQO1): 2 µM
specific activity of NQO1 (NQO1; 0.156 uM): 1.19
specific activity of NQO1 (NQO1; 0.313 uM): 1.28
specific activity of NQO1 (NQO1; 0.625 uM): 1.41
specific activity of NQO1 (NQO1; 1.25 uM): 1.68
specific activity of NQO1 (NQO1; 2.5 uM): 2.1
specific activity of NQO1 (NQO1; 5 uM): 2.66
specific activity of NQO1 (NQO1; 10 uM): 3.53
specific activity of NQO1 (NQO1; 20 uM): 4.18

O=C(O)c1ccc(NC2=C/C(=N\S(=O)(=O)c3ccc4ccccc4c3)c3ccccc3C2=O)cc1 [iKeap2]
Radius [1]: 12.492 nm
CD (NQO1): 2.7 µM
specific activity of NQO1 (NQO1; 0.156 uM): 1.13
specific activity of NQO1 (NQO1; 0.313 uM): 1.2
specific activity of NQO1 (NQO1; 0.625 uM): 1.33
specific activity of NQO1 (NQO1; 1.25 uM): 1.49
specific activity of NQO1 (NQO1; 2.5 uM): 1.91
specific activity of NQO1 (NQO1; 5 uM): 2.75
specific activity of NQO1 (NQO1; 10 uM): 6.08
IC50 (NRF2-KEAP1 interaction [2]; Level-2 FP, displacement of TAMRA-NRF2 peptide): 2700 nM
FP Assay (NRF2-KEAP1 interaction [2]): active
BLI Assay (NRF2-KEAP1 interaction [3]): able to displace the NRF2 peptide from KEAP1; also recorded: active
binding to KEAP1 by ligand-detected NMR (KEAP1): directly bind to KEAP1
Kd (GST-KEAP1; SPR Level-3, average of three independent experiments, read-out: Kd average): 252 nM
Kd (GST-KEAP1; [4]): 263 nM
Kd (GST-KEAP1; SPR Level-3, independent experiment 3, compounds marked * fitted with biphasic binding model, read-out: Kd, 3): 334 nM
Kd (GST-KEAP1; steady-state SPR, read-out: Kd (binding affinity to KEAP1)): 158 nM

O=C1OC(c2ccc([N+](=O)[O-])cc2)=N/C1=C\c1cccc2ccccc12 [iKeap4]
CD (NQO1): 15 µM
specific activity of NQO1 (NQO1; 0.156 uM): 1.06
specific activity of NQO1 (NQO1; 0.313 uM): 1.1
specific activity of NQO1 (NQO1; 0.625 uM): 1.21
specific activity of NQO1 (NQO1; 1.25 uM): 1.18
specific activity of NQO1 (NQO1; 2.5 uM): 1.27
specific activity of NQO1 (NQO1; 5 uM): 1.47
specific activity of NQO1 (NQO1; 10 uM): 1.75
specific activity of NQO1 (NQO1; 20 uM): 2.2

CC1=NN(c2ccccc2)C(=O)/C1=C\c1ccc(-c2cc(C(=O)O)ccc2Cl)o1 [iKeap7]
Radius [1]: 3.663 nm
CD (NQO1): 20 µM
specific activity of NQO1 (NQO1; 0.156 uM): 1.06
specific activity of NQO1 (NQO1; 0.313 uM): 1.08
specific activity of NQO1 (NQO1; 0.625 uM): 1.13
specific activity of NQO1 (NQO1; 1.25 uM): 1.17
specific activity of NQO1 (NQO1; 2.5 uM): 1.3
specific activity of NQO1 (NQO1; 5 uM): 1.44
specific activity of NQO1 (NQO1; 10 uM): 1.65
specific activity of NQO1 (NQO1; 20 uM): 2.08
FP Assay (NRF2-KEAP1 interaction [2]): displacer of the NRF2 peptide; also recorded: active
BLI Assay (NRF2-KEAP1 interaction [3]): displacer of the NRF2 peptide; also recorded: active
binding to KEAP1 by ligand-detected NMR (KEAP1): bind to KEAP1

O=C(Nc1cccc(-c2nnn[nH]2)c1)[C@@H]1C[C@H]2CCCC[C@H]2N1C(=O)c1ccc2ccccc2c1 [iKeap8]
Radius [1]: 3.340 nm
specific activity of NQO1 (NQO1; 0.156 uM): 1.07
specific activity of NQO1 (NQO1; 0.313 uM): 1.04
specific activity of NQO1 (NQO1; 0.625 uM): 1.06
specific activity of NQO1 (NQO1; 1.25 uM): 1.11
specific activity of NQO1 (NQO1; 2.5 uM): 1.08
specific activity of NQO1 (NQO1; 5 uM): 1.11
specific activity of NQO1 (NQO1; 10 uM): 1.16
specific activity of NQO1 (NQO1; 20 uM): 1.21
FP Assay (NRF2-KEAP1 interaction [2]): able to displace the NRF2 peptide; also recorded: active
BLI Assay (NRF2-KEAP1 interaction [3]): able to displace the NRF2 peptide; also recorded: active
binding to KEAP1 by ligand-detected NMR (KEAP1): bind to KEAP1

O=S(=O)(N=C1CCCCCN1)c1ccc2sc(NS(=O)(=O)c3ccc4ccccc4c3)nc2c1 [iKeap9]
Radius [1]: 1.862 nm
FP Assay (NRF2-KEAP1 interaction [2]): not able to effectively displace the NRF2 peptide
BLI Assay (NRF2-KEAP1 interaction [3]): not able to effectively displace the NRF2 peptide
binding to KEAP1 by ligand-detected NMR (KEAP1): bind to KEAP1
Kd (GST-KEAP1; [4]): 187 nM

O=S(=O)(O)c1ccc(/N=N\c2ccc(/N=N\c3ccc(O)c4cccc(S(=O)(=O)O)c34)cc2)cc1 [iKeap18]
specific activity of NQO1 (NQO1; 0.156 uM): 1.09
specific activity of NQO1 (NQO1; 0.313 uM): 1.09
specific activity of NQO1 (NQO1; 0.625 uM): 1.19
specific activity of NQO1 (NQO1; 1.25 uM): 1.18
specific activity of NQO1 (NQO1; 2.5 uM): 1.29
specific activity of NQO1 (NQO1; 5 uM): 1.39
specific activity of NQO1 (NQO1; 10 uM): 1.58
specific activity of NQO1 (NQO1; 20 uM): 1.79
CD (NQO1; extrapolated (extp)): 40 (extp) uM

O=C1C[C@@H](c2ccc3ncccc3c2)c2c(cc(O)c3c(=O)cc(-c4ccc(O)cc4)oc23)O1 [iKeap22]
Radius [1]: 2.547 nm
FP Assay (NRF2-KEAP1 interaction [2]): not active
BLI Assay (NRF2-KEAP1 interaction [3]): displacer; also recorded: active
binding to KEAP1 by ligand-detected NMR (KEAP1): bind to KEAP1

Cc1ccc(C)c(N2C(=O)c3ccc(-c4nc(-c5ccc6[nH]nnc6c5)no4)cc3C2=O)c1 [iKeap27]
Radius [1]: 2.643 nm
FP Assay (NRF2-KEAP1 interaction [2]): not active
BLI Assay (NRF2-KEAP1 interaction [3]): active

O=S(=O)(Nc1nc2ccccc2nc1N1CCC[C@@H](c2nc3ccccc3[nH]2)C1)c1ccccc1 [iKeap33]
Radius [1]: 1.585 nm
FP Assay (NRF2-KEAP1 interaction [2]): not active
BLI Assay (NRF2-KEAP1 interaction [3]): active

O=C(c1cc(-c2ccc3c(c2)OCCO3)nc2ccccc12)N1CCC(Cc2ccccc2)CC1 [iKeap41]
Radius [1]: 4.446 nm
FP Assay (NRF2-KEAP1 interaction [2]): not active
BLI Assay (NRF2-KEAP1 interaction [3]): active

CC(=O)N/C(=C\c1ccc(Cc2nc3c([nH]2)C(=O)c2ccccc2C3=O)cc1)c1nc2c([nH]1)C(=O)c1ccccc1C2=O [iKeap48]
Radius [1]: 25.579 nm
FP Assay (NRF2-KEAP1 interaction [2]): not active
BLI Assay (NRF2-KEAP1 interaction [3]): active

C[C@H]1CCc2c(sc3ncnc(N4CCO[C@@H](CN5C(=O)c6ccccc6C5=O)C4)c23)C1 [iKeap73]
Radius [1]: 2.510 nm
FP Assay (NRF2-KEAP1 interaction [2]): not active
BLI Assay (NRF2-KEAP1 interaction [3]): active

C[C@@H]1Oc2ccc(C(=O)C3CCN(C(=O)[C@H]4C[C@H]4c4cccc5ccccc45)CC3)cc2NC1=O [iKeap74]
Radius [1]: 3.034 nm
FP Assay (NRF2-KEAP1 interaction [2]): not active
BLI Assay (NRF2-KEAP1 interaction [3]): active

Cc1cccn2c(=O)c3c(nc12)N1CCCCC[C@H]1[C@]1(C3)C(=O)N(Cc2ccccc2Cl)C(=O)N=C1O [iKeap75]
Radius [1]: 3.612 nm
FP Assay (NRF2-KEAP1 interaction [2]): not active
BLI Assay (NRF2-KEAP1 interaction [3]): active
